Where a name gives a salt, the structure may show the parent alone.
How the values were obtained:
dHL60 cells = test: Cell Titer Glo 2.0 cytotoxicity (ATP) assay in PMA-stimulated dHL60 cells; assay type: cell-based, human; settings: for IC50: Homo sapiens, Cell Titer Glo 2.0, PMA-stimulated dHL60 cells, 2.5 h with inhibitor, unit not printed in Table 3, taken from text, read-out: IC50, Viability Assay
Protocol: The cytotoxicity of the inhibitors was tested by measuring the amount of ATP in the wells containing PMA-stimulated dHL60 cells and the candidate inhibitors. Cells were prepared as described for the plate reader-based measurements for H2O2, except that the cells were maintained with the inhibitors in a CO2-free incubator at 37 °C for 2.5 h to mirror the conditions during the fluorescence-based monitoring of H2O2 described above. After incubation, cells (100 µL/well) were transferred to white 96-well plates (Greiner, Kremsmünster, Austria), and the total cellular ATP amount was determined using the Cell Titer Glo 2.0 (Promega) cytotoxicity assay (100 µL/well) by measuring the luminescence intensity using a Beckman Coulter DTX880 plate reader.

Nox2 [1] = target: T1, Nox2 (Homo sapiens, UniProt P04839); test: CBA probe assay of H2O2 production by PMA-activated dHL60 cells; assay type: cell-based; settings: for Nox2 inhibitory potency (SAR statement): replacement of the indole moiety, data not shown; for IC50: PMA (1 µM)-activated dHL60 cells, 30 min preincubation with inhibitor, read-out: IC50, inhibition of H2O2 production, CBA Assay; for Nox2 inhibitory activity: tested at concentrations of up to 50 µM
T1 construct: endogenous in cells
T1 sequence (P04839 2-570 limits assumed): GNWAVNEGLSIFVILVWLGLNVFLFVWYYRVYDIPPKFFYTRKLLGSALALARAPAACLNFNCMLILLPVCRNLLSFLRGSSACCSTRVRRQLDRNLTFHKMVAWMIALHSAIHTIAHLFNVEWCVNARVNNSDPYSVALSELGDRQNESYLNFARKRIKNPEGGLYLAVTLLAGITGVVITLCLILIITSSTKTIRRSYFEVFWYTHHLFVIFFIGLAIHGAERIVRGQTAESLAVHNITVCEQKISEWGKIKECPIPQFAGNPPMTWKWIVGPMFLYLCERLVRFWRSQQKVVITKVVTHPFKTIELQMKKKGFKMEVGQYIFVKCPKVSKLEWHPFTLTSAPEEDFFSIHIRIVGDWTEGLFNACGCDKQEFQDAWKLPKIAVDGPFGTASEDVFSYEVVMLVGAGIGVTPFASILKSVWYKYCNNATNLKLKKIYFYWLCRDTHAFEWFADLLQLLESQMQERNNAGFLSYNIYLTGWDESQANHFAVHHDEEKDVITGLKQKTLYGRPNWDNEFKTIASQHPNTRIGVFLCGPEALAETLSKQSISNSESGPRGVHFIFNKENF
T1 sequence (P13498 2-195 partner limits assumed): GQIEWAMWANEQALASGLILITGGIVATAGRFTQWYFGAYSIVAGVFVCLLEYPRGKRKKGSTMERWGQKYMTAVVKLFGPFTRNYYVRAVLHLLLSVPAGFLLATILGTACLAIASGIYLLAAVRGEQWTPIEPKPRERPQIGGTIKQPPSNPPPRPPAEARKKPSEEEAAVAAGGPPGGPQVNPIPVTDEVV
Protocol: (§1) Human promyelocytic leukemia HL60 cells (Sigma-Aldrich) were grown in RPMI 1640 medium (Gibco, 11875-093, Billings, MT, USA) supplemented with 10% FBS (Omega Scientific (Tarzana, CA, USA)), 100 units/mL penicillin, and 100 µg/mL streptomycin, and were incubated at 37 °C and 5% carbon dioxide (CO2). For differentiation to neutrophil-like cells, HL60 cells were pelleted and resuspended in fresh media containing 1 µM of all trans-retinoic acid and incubated for four to five days. Nox2 activation was achieved by treating differentiated HL60 (dHL60) cells with 1 µM PMA [24]. Human leukemia monocytic cells, THP-1, were grown in RPMI 1640 medium + GlutaMAX^TM (Gibco, 61870-036) and supplemented with 10% FBS, 10 mM HEPES, and 1 mM sodium pyruvate and incubated at 37 °C in 5% CO2 environment. To induce differentiation into macrophages, THP-1 cells were treated with PMA (100 ng/mL) for 48 h. To test the efficacy of Nox2 inhibitors, treatment was performed with or without the inhibitor, along with PMA [35].
(§2) Plate reader-based analyses of the production of O2^•− and H2O2 by PMA-activated dHL60 cells were performed according to a published protocol with minor modifications. Briefly, for the treatment of dHL60 cells with different concentrations of the compounds, 0.5 mL deep-well 96-well plates were used to dispense and store aliquots of their 10 mM DMSO solutions. Using a Multidrop™ PicoIT dispenser (Thermo Scientific), different volumes of the solutions of candidate Nox inhibitors (10 or 50 mM in DMSO) were injected into the bottom of 0.5 mL V-bottom 96-well plates; then, they were sealed with aluminum foil (VWR, Batavia, IL, USA) using a semiautomatic thermal sealer (BT LabSystems, St. Louis, MO, USA) and stored at −20 °C to reduce freeze-thawing the solutions. The plates with inhibitors were allowed to come to room temperature before the addition of the cell suspensions. dHL60 cells were pelleted and resuspended in HBSS (Invitrogen, Waltham, MA, USA) supplemented with 25 mM HEPES (pH 7.4) and 100 µM DTPA to a cell density of 2 × 10^5 cells/mL. dHL60 cells were added to the V-bottom plates at a volume of 210 µL/well. Next, cells were incubated with inhibitors for 30 min at 37 °C in a CO2-free incubator under ambient oxygen and then transferred to black, clear-bottom 96-well plates (200 µL/well) after incubation. Freshly prepared PMA plus probe solutions in HBSS (5× concentrated, 50 µL/well) included PMA (5 µM) with CBA (500 µM) or with Amplex Red (250 µM) plus HRP (0.5 U/mL) for H2O2 detection, or with HE (50 µM) plus DNA (0.5 mg/mL) for O2^•− detection. Once probes + PMA were added, plates were sealed with sealing film and immediately placed in the pre-warmed plate readers (37 °C). Fluorescence intensities were monitored kinetically from the bottom of the plates every 1.3 min for a period of 2 h using Beckman Coulter (Brea, CA, USA) DTX880 and BMG Labtech (Ortenberg, Germany) FLUOstar Omega plate readers. DMSO alone and DPI (10 µM) were used as negative and positive controls, respectively. […] The IC50 values were determined using at least five independent measurements, each consisting of technical quadruplicates per concentration.

Nox2 [2] = target: T1, Nox2; test: Amplex Red/HRP assay of H2O2 production by PMA-activated dHL60 cells; assay type: cell-based; settings: for IC50: PMA (1 µM)-activated dHL60 cells, 30 min preincubation, read-out: IC50, inhibition of H2O2 production, Amplex Red Assay
Protocol: as §1, §2

Nox2 [3] = tested on: Nox2; set-up: method as in PMID 22726689; settings: library of >200,000 compounds; cited from earlier work
[4] = In vivo pharmacokinetics / brain penetration, species not specified (rodent models); settings: brain; species and dose not stated; data not shown; read-out: brain-to-plasma ratio
From the text: Rapid metabolism and the inability to cross the BBB represent major obstacles in the application of bioactive agents in neurodegenerative diseases. Based on the premise that Nox2 plays a major role in oxidative damage and exacerbates neurodegenerative diseases, we envision applications of brain-permeable Nox2 inhibitors in mechanistic studies in vivo, and, long-term, in the development of novel therapeutic strategies. Therefore, we performed in vivo pharmacokinetics studies to determine the time profile of plasma concentration and accumulation of TG15-132 in the brain tissue of Sprague Dawley rats and C57BL6 mice.

THP-1 cells = test: qRT-PCR mRNA expression of Nox2 subunits and inflammatory mediators in PMA-treated THP-1 cells; assay type: cell-based, human; settings: 3 µM, 48 h with PMA 100 ng/mL
Protocol: as §1
mRNA expression analysis was performed as previously described. Briefly, THP-1 cells were treated with PMA (100 ng/mL) with or without the Nox2 inhibitor TG15-132 (3.0 µM) for 48 h. RNA extraction was done using the Quick-RNA miniprep kit (cat. no. R1055, Zymo Research, Irvine, CA, USA) and followed by cDNA synthesis using the qScript cDNA superMix kit (cat. no. 84035, Quantabio, Beverly, MA, USA). Quantitative real-time PCR was performed using specific primers designed to amplify target genes (Table 2). Data obtained were analyzed and converted into fold changes in expression with respect to vehicle-treated cells.

[5] = Short-term (seven day) in vivo toxicity in mice; set-up: species or system C57BL/6 mice; settings: 20 mg/kg, seven days, Figure 9B
Protocol: All animal experiments were performed according to protocols and guidelines approved by the Emory University Animal Care and Use Committee. The in vivo toxicity of TG15-132 was assessed using C57BL/6 mice (cat. no. 027, Charles River Laboratories, Wilmington, MA, USA). Animals were injected daily (i.p.) with saline, vehicle (DMSO 10%, PEG400 30%, water 60%), or 20 mg/kg of TG15-132 in vehicle for seven days, with body weight recorded each day. At the end of treatment, organs were harvested to study organ weight loss, and blood was collected from each mouse via cardiac puncture, and serum was isolated. Serum was analyzed for kidney function using blood urea nitrogen and creatinine, liver function using alanine amino transferase, and tissue damage using lactate dehydrogenase.

c1ccc2c(c1)[I+]c1ccccc1-2 [DPI, Diphenyleneiodonium chloride, reference compound]
cytotoxic effects (dHL60 cells; 10 µM, Cell Titer Glo 2.0): did not show any cytotoxic effects | inhibitory activity (positive control) (Nox2 [1]; 10 µM): consistently showed inhibitory activity

CN(C)CCCSc1nc2ccc(F)cc2c(=O)n1CCCN(C)C [TG17-55]
Nox2 inhibitory potency (SAR statement) (Nox2 [1]): eliminated potency

CC(C)N1CCN(C(=O)CCCn2c(SCCc3c[nH]c4ccccc34)nc3ccc(F)cc3c2=O)CC1 [TG15-293]
IC50 (Nox2 [2]): 67.8 ± 2.6 µM | fold less potency than TG17-57 in the Amplex Red assay (Nox2 [2]; relative to TG17-57): about 7 fold | IC50 (dHL60 cells): 38.3 ± 7.5 µM | IC50 (Nox2 [1]): 23.6 ± 18.1 µM | fold less potency than TG17-57 in the CBA assay (Nox2 [1]; relative to TG17-57): about 3 fold

CCN1CCN(CCCn2c(SCCc3c[nH]c4ccccc34)nc3ccc(F)cc3c2=O)CC1 [TG17-56]
IC50 (Nox2 [2]): 7.8 ± 4 µM | IC50 (dHL60 cells): 16.7 ± 2.5 µM | IC50 (Nox2 [1]): 5.3 ± 0.6 µM

COc1cc(C(C)=O)ccc1O [apocynin, reference compound]
Nox2 inhibitory activity (Nox2 [1]): did not show Nox2 inhibitory activity

CN(C)CCCn1c(SCCc2ccccn2)nc2ccc(Cl)cc2c1=O [TG15-124]
Nox2 inhibitory potency (SAR statement) (Nox2 [1]): significant loss in Nox2 inhibitory potency

O=c1c2ccccc2[se]n1-c1ccccc1 [ebselen]
Nox2 inhibition in cell-free HTS (Nox2 [3]): modest Nox2 inhibitors

CC(C)N1CCN(CCCn2c(SCCc3c[nH]c4ccccc34)nc3ccc(F)cc3c2=O)CC1 [TG17-57]
IC50 (Nox2 [2]): 9.2 ± 0.4 µM | IC50 (dHL60 cells): 20.7 ± 5 µM | IC50 (Nox2 [1]): 7 ± 2.8 µM

CN(C)CCCn1c(SCCc2c[nH]c3ccccc23)nc2ccc(Cl)cc2c1=O [TG15-139]
IC50 (Nox2 [2]): 4.9 ± 2.3 µM | Kp [4]: > 23 | IC50 (dHL60 cells): 14.1 ± 1.7 µM | cell viability at concentrations showing Nox2 inhibitory potency (dHL60 cells; dHL60 cells, Figure 3D,E): no decrease in cell viability | IC50 (Nox2 [1]): 3.1 ± 1.4 µM

CC(C)n1cc(-c2ccc3c(c2)N(C)CC3)c2c(NS(=O)(=O)c3ccn(C)n3)ccnc21 [GSK 2795039, reference compound]
expression of TNF compared with PMA-treated cells (Figure 7B) (THP-1 cells): increased | mRNA expression vs PMA-treated cells, additional experiment (Figure 7B) (THP-1 cells): did not reduce the expression of Nox2 components and inflammatory mediators

CN(C)CCCn1c(SCCc2ccccn2)nc2ccc(F)cc2c1=O [TG15-131]
Nox2 inhibitory potency (SAR statement) (Nox2 [1]): significant loss in Nox2 inhibitory potency

CN(C)CCCn1c(SCCc2c[nH]c3ccccc23)nc2ccc(F)cc2c1=O [TG15-132•HCl]
liver or kidney function, tissue damage (serum BUN, CREAT, ALT, LDH) [5]: did not lead to a negative effect

COc1cc(C(C)=O)cc(-c2cc(C(C)=O)cc(OC)c2O)c1O [diapocynin, reference compound]
Nox2 inhibitory activity (Nox2 [1]): did not show Nox2 inhibitory activity
